The source of these data is patent US20090099158A1, “TETRAHYDROISOQUINOLINE COMPOUNDS AS MODULATORS OF THE HISTAMINE H3 RECEPTOR” (priority 2007, published 2009).

One experiment deals with T1, human H3 receptor (Homo sapiens, UniProt Q9Y5N1).
T1 construct: expressed in transfected cells; host or cells: SK-N-MC sublines with reporter construct
The experiment can be described thus: Cyclic AMP Accumulation (human H3 receptor). The class given is cell-based. To be noted: SK-N-MC cells expressing a reporter construct and the human H3 receptor; average; read-out: Human pA2 (converted). The text has this: (§1) Sublines of SK-N-MC cells were created that expressed a reporter construct and either the human or rat H3 receptor. The pA2 values were obtained as described by Barbier et al. (2004). Data for compounds tested in these assays are presented in Table 3, as an average of the results obtained (NT=not tested).

In experiment [1] the target is T2, cloned human H3 receptors (Homo sapiens, UniProt Q9Y5N1).
T2 construct: expressed in transfected cells; host or cells: SK-N-MC cells
Kind of experiment: H3 Receptor Binding (Human). To be noted: cloned human H3 receptors stably expressed in SK-N-MC cells; average of the results obtained. On the procedure: Binding of compounds to the cloned human H3 receptors, stably expressed in SK-N-MC cells, was performed as described by Barbier, A. J. et al. (Br. J. Pharmacol. 2004, 143(5), 649-661). Data for compounds tested in this assay are presented in Table 1 as an average of the results obtained.

For experiment [2], the target named is T3, Rat H3 (Rattus norvegicus, UniProt Q9QYN8). Kind of experiment: H3 Receptor Binding (Rat). To be noted: rat brain (without cerebellum) membranes; 0.8 nM N-[3H]-α-methylhistamine, 60 min at 25° C.; IC50 converted to Ki; average. On the set-up: A rat brain without cerebellum (Zivic Laboratories Inc., Pittsburgh, Pa.) was homogenized; tissue Zivic Laboratories Inc; host or cells: rat brain without cerebellum (membranes). The procedure: A rat brain without cerebellum (Zivic Laboratories Inc., Pittsburgh, Pa.) was homogenized in 50 mM Tris-HCl/5 mM EDTA and centrifuged at 1,000 rpm for 5 min. The supernatant was removed and recentrifuged at 15,000 rpm for 30 min. Pellets were rehomogenized in 50 mM Tris/5 mM EDTA (pH 7.4). Membranes were incubated with 0.8 nM N-[^3H]-α-methylhistamine plus/minus test compounds for 60 min at 25° C. and harvested by rapid filtration over GF/C glass fiber filters (pretreated with 0.3% polyethylenimine) followed by four washes with buffer. Nonspecific binding was defined in the presence of 100 μM histamine. Inhibitory concentration (responsible for 50% inhibition of maximal effect, IC50) values were determined by a single site curve-fitting program (GraphPad, San Diego, Calif.) and converted to Ki values based on a N-[^3H]-α-methylhistamine dissociation constant (Kd) of 0.8 nM. Data for compounds tested in this assay are presented in Table 2 as an average of the results obtained.

Experiment [3] addresses T3, Rat H3. The experiment can be described thus: Cyclic AMP Accumulation (rat H3 receptor). Type of experiment: cell-based. As to conditions: SK-N-MC cells expressing a reporter construct and the rat H3 receptor; average; read-out: Rat pA2 (converted). Further details: expressed in transfected cells; host or cells: SK-N-MC sublines with reporter construct.
Description: as §1

In general, Ki refers to the equilibrium dissociation constant of an inhibitor or competing ligand from its target. Read a high Ki as lower affinity.

T2 sequence (Q9Y5N1 whole entry): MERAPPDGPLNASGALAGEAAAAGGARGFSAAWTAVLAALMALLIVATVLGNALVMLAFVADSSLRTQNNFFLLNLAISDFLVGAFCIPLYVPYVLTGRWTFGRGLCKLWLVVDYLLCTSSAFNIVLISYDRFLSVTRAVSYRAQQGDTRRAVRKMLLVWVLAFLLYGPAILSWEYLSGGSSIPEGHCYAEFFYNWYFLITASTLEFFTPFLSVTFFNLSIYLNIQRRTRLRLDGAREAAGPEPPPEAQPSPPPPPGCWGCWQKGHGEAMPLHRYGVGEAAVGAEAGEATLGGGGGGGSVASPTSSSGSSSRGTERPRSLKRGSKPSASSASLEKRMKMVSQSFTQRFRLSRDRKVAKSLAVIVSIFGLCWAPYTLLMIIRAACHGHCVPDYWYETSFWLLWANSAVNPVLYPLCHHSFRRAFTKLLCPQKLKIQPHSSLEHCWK
T3 sequence (Q9QYN8 whole entry): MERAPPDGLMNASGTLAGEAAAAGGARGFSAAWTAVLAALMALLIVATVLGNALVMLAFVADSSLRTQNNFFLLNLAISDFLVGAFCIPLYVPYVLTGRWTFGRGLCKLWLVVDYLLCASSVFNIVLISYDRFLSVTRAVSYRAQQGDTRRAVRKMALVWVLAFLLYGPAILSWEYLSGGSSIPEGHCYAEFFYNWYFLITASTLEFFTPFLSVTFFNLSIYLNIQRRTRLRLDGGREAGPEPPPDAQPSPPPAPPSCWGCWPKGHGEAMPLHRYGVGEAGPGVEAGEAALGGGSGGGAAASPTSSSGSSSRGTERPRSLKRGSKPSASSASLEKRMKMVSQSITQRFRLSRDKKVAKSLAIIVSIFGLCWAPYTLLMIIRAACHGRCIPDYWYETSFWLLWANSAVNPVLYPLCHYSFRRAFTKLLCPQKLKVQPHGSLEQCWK
T1 sequence (Q9Y5N1 whole entry): as the sequence (Q9Y5N1 whole entry) above

Take `O=C(c1ccc2c(c1)CCN(Cc1ccsc1)C2)N1CCN(C2CCC2)CC1` [Example 15, (4-Cyclobutyl-piperazin-1-yl)-(2-thiophen-3-ylmethyl-1,2,3,4-tetrahydro-isoquinolin-6-yl)-methanone]: on human H3 receptor, the Kb was 1.05 nM. Affinity in experiment [1] was put at a Ki of 4 nM. For `O=C(c1ccc2c(c1)CN(Cc1ccccc1)CC2)N1CCN(C2CCC2)CC1` [Example 26, (2-Benzyl-1,2,3,4-tetrahydro-isoquinolin-7-yl)-(4-cyclobutyl-piperazin-1-yl)-methanone], in that order: 17.8 nM and 2 nM.

For `O=C(c1ccc2c(c1)CCN(C(=O)c1ccccc1)C2)N1CCN(C2CCC2)CC1` [Example 27, (2-Benzoyl-1,2,3,4-tetrahydro-isoquinolin-6-yl)-(4-cyclobutyl-piperazin-1-yl)-methanone], the Ki was determined as 84 nM at Rat H3 [2] and 9 nM in experiment [1]. Consider `O=C(c1ccc2c(c1)CCN(C(=O)C1CCCCC1)C2)N1CCN(C2CCC2)CC1` [Example 33, [6-(4-Cyclobutyl-piperazine-1-carbonyl)-3,4-dihydro-1H-isoquinolin-2-yl]-cyclohexyl-methanone], for which the Ki is 123 nM on Rat H3 [2] and 8 nM in experiment [1]. Further, at Rat H3 [3], the Kb was 13.8 nM. In the case of `O=C(c1ccc2c(c1)CCN(C(=O)c1ccc(Cl)cc1)C2)N1CCCN(C2CCC2)CC1` [Example 133, (4-Chloro-phenyl)-[6-(4-cyclobutyl-[1,4]diazepane-1-carbonyl)-3,4-dihydro-1H-isoquinolin-2-yl]-methanone], the inhibition constant (Ki) at Rat H3 [2] was determined as 18 nM; in experiment [1] it was 2 nM. Turning to `O=C(c1ccc2c(c1)CCN(C(=O)c1cccc(Cl)c1)C2)N1CCCN(C2CCC2)CC1` [Example 135, (3-Chloro-phenyl)-[6-(4-cyclobutyl-[1,4]diazepane-1-carbonyl)-3,4-dihydro-1H-isoquinolin-2-yl]-methanone], the values for the Ki (at Rat H3 [2]; in experiment [1]) were 11 nM and 1 nM, respectively. `O=C(c1ccc2c(c1)CCN(C(=O)c1ccccc1F)C2)N1CCCN(C2CCC2)CC1` [Example 136, [6-(4-Cyclobutyl-[1,4]diazepane-1-carbonyl)-3,4-dihydro-1H-isoquinolin-2-yl]-(2-fluoro-phenyl)-methanone]: the Ki on Rat H3 [2] came to 16 nM; in experiment [1] it was 1 nM. For `O=C(c1ccc2c(c1)CCN(C(=O)C1CCOC1)C2)N1CCCN(C2CCC2)CC1` (stereo not drawn) [Example 137, [6-(4-Cyclobutyl-[1,4]diazepane-1-carbonyl)-3,4-dihydro-1H-isoquinolin-2-yl]-(tetrahydro-furan-3-yl)-methanone], in that order: 8 nM and 1 nM.

As to `CCC(=O)N1CCc2cc(C(=O)N3CCCN(C4CCC4)CC3)ccc2C1` [Example 139, 1-[6-(4-Cyclobutyl-[1,4]diazepane-1-carbonyl)-3,4-dihydro-1H-isoquinolin-2-yl]-propan-1-one], the results for the Ki (at Rat H3 [2]; in experiment [1]) were 7 nM and 1 nM, respectively.

As for `Cc1ccc(C(=O)N2CCc3cc(C(=O)N4CCCN(C5CCC5)CC4)ccc3C2)cc1F` [Example 142, [6-(4-Cyclobutyl-[1,4]diazepane-1-carbonyl)-3,4-dihydro-1H-isoquinolin-2-yl]-(3-fluoro-4-methyl-phenyl)-methanone], the Ki on Rat H3 [2] was found to be 28 nM; in experiment [1], 1 nM. Take `O=C(c1ccc2c(c1)CCN(C(=O)c1ccc(F)cc1F)C2)N1CCCN(C2CCC2)CC1` [Example 144, [6-(4-Cyclobutyl-[1,4]diazepane-1-carbonyl)-3,4-dihydro-1H-isoquinolin-2-yl]-(2,4-difluoro-phenyl)-methanone]: the results for the Ki (on Rat H3 [2]; in experiment [1]) were 32 nM and 1 nM, respectively.

As for `CC(C)N1CCc2cc(C(=O)N3CCC(C(C)(C)C)CC3)ccc2C1` [Example 176, (4-tert-Butyl-piperidin-1-yl)-(2-isopropyl-1,2,3,4-tetrahydro-isoquinolin-6-yl)-methanone], affinity in experiment [1] was put at a Ki of 250 nM. `CC(C)N1CCc2cc(C(=O)N3CCCN(C4CCC4)CC3)ccc2C1` [Example 177, (4-Cyclobutyl-[1,4]diazepan-1-yl)-(2-isopropyl-1,2,3,4-tetrahydro-isoquinolin-6-yl)-methanone]: the Ki (on Rat H3 [2]; in experiment [1]) was 1 nM each time.

`CC(C)N1CCc2cc(C(=O)N3CCC(C(C)(C)O)CC3)ccc2C1` [Example 178, [4-(1-Hydroxy-1-methyl-ethyl)-piperidin-1-yl]-(2-isopropyl-1,2,3,4-tetrahydro-isoquinolin-6-yl)-methanone]: the Ki in experiment [1] worked out at 3300 nM. On the same count and under the same terms, the value for `CCCN1CCc2cc(C(=O)N3CCOCC3)ccc2C1` [Example 180, Morpholin-4-yl-(2-propyl-1,2,3,4-tetrahydro-isoquinolin-6-yl)-methanone] was 9000 nM. Same read-out and setting: the value for `CCCN1CCc2cc(C(=O)N3CCN4CCCCC4C3)ccc2C1` (stereo not drawn) [Example 181, (Octahydro-pyrido[1,2-a]pyrazin-2-yl)-(2-propyl-1,2,3,4-tetrahydro-isoquinolin-6-yl)-methanone] was 2 nM; that for `CCCN1CCc2cc(C(=O)N3CCC(C(C)(C)C)CC3)ccc2C1` [Example 182, (4-tert-Butyl-piperidin-1-yl)-(2-propyl-1,2,3,4-tetrahydro-isoquinolin-6-yl)-methanone] was 340 nM. On the same count and under the same terms, the value for `CCCN1CCc2cc(C(=O)N3CCCN(C4CCC4)CC3)ccc2C1` [Example 183, (4-Cyclobutyl-[1,4]diazepan-1-yl)-(2-propyl-1,2,3,4-tetrahydro-isoquinolin-6-yl)-methanone] was 1 nM; that for `CCCN1CCc2cc(C(=O)N3CCC(C(C)(C)O)CC3)ccc2C1` [Example 184, [4-(1-Hydroxy-1-methyl-ethyl)-piperidin-1-yl]-(2-Propyl-1,2,3,4-tetrahydro-isoquinolin-6-yl)-methanone] was 4200 nM; that for `O=C(c1ccc2c(c1)CCN(C1CCC1)C2)N1CCCCC1` [Example 185, (2-Cyclobutyl-1,2,3,4-tetrahydro-isoquinolin-6-yl)-piperidin-1-yl-methanone] was 2100 nM. On to `O=C(c1ccc2c(c1)CCN(C1CCC1)C2)N1CCOCC1` [Example 186, (2-Cyclobutyl-1,2,3,4-tetrahydro-isoquinolin-6-yl)-morpholin-4-yl-methanone], for which, in experiment [1], the Ki stood at 1800 nM. Take `O=C(c1ccc2c(c1)CCN(C1CCC1)C2)N1CCN2CCCCC2C1` (stereo not drawn) [Example 187, (2-Cyclobutyl-1,2,3,4-tetrahydro-isoquinolin-6-yl)-(octahydro-pyrido[1,2-a]pyrazin-2-yl)-methanone]: the Ki at Rat H3 [2] worked out at 30 nM; in experiment [1], 3 nM.

The molecule `CC(C)(C)C1CCN(C(=O)c2ccc3c(c2)CCN(C2CCC2)C3)CC1` [Example 188, (4-tert-Butyl-piperidin-1-yl)-(2-cyclobutyl-1,2,3,4-tetrahydro-isoquinolin-6-yl)-methanone] displayed a Ki in experiment [1] of 340 nM. This counts as sub-micromolar.

`O=C(c1ccc2c(c1)CCN(C1CCC1)C2)N1CCCN(C2CCC2)CC1` [Example 189, (4-Cyclobutyl-[1,4]diazepan-1-yl)-(2-cyclobutyl-1,2,3,4-tetrahydro-isoquinolin-6-yl)-methanone]: the inhibition constant (Ki) in experiment [1] was 1 nM. Compared with the last molecule, the Ki is about 340-fold lower.

`O=C(c1ccc2c(c1)CCN(C1CCCC1)C2)N1CCCCC1` [Example 191, (2-Cyclopentyl-1,2,3,4-tetrahydro-isoquinolin-6-yl)-piperidin-1-yl-methanone]: the Ki in experiment [1] came to 2200 nM. Against the preceding molecule, the Ki is about 2200-fold higher. On the same count and under the same terms, to `O=C(c1ccc2c(c1)CCN(C1CCCC1)C2)N1CCN2CCCCC2C1` (stereo not drawn) [Example 192, (2-Cyclopentyl-1,2,3,4-tetrahydro-isoquinolin-6-yl)-(octahydro-pyrido[1,2-a]pyrazin-2-yl)-methanone] belongs 1 nM; to `CC(C)(C)C1CCN(C(=O)c2ccc3c(c2)CCN(C2CCCC2)C3)CC1` [Example 193, (4-tert-Butyl-piperidin-1-yl)-(2-cyclopentyl-1,2,3,4-tetrahydro-isoquinolin-6-yl)-methanone], 240 nM; to `CC(C)(O)C1CCN(C(=O)c2ccc3c(c2)CCN(C2CCCC2)C3)CC1` [Example 194, (2-Cyclopentyl-1,2,3,4-tetrahydro-isoquinolin-6-yl)-[4-(1-hydroxy-1-methyl-ethyl)-piperidin-1-yl]-methanone], 2700 nM.
